One may read the Ki as the dissociation constant of the complex between target and ligand, obtained from inhibition or displacement. As usually defined, the IC50 is the point on the concentration scale where inhibition reaches its midpoint.

Each structure is given as a SMILES string.

T1 sequence (O15294 382-1046, species assumed): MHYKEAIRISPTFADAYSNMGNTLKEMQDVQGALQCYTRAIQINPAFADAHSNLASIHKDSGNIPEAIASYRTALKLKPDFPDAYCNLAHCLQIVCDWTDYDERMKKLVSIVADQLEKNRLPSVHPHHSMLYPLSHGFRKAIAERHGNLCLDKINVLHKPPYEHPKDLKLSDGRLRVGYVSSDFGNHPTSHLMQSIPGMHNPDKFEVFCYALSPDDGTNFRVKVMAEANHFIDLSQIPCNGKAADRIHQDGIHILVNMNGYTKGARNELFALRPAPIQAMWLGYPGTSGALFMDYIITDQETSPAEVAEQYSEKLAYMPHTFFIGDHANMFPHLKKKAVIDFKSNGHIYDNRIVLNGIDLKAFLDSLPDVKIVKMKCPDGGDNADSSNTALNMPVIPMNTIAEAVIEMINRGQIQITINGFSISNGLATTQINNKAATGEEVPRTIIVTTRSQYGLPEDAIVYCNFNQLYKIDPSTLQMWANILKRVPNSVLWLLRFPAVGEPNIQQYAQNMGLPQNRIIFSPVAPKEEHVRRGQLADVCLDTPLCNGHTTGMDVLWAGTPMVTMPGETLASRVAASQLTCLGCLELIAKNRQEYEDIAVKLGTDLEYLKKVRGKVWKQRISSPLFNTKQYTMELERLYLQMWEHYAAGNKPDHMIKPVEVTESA

The first test concerns HEK293 cells. The test is described as follows: Glucosamine-induced cellular-wide O-GlcNAcylation changes in HEK cells (western blot, CTD110.6 antibody). The format is cell-based. The settings on record: 12.5 μM compound, 4 mM glucosamine, 16 hours. Here is the method:
The efficacy of the inhibitor in cell culture was evaluated by adding compound N08 to HEK293 cells.HEK293 cells were grown in 6 well plates using low glucose (5 mM) DMEM with 10% FBS as the media. […] After mixing the compounds the media was removed from the cultured cells and the inhibitor-media solutions was added to the cells. After cells were incubated with the inhibitors for 16 hours (overnight), the cells were rinsed with PBS, removed using cell scrapers, transferred to 1.5 ml microcentrifuge tubes, pelleted by centrifugation, and lysed by resuspending in 100 μl RIPA buffer with protease and phosphatase inhibitor cocktails (SIGMA). After incubating on ice the debris were pelleted down, and the supernatant was collected as whole cell lysate. Total protein concentration of each sample was determined by Bradford Assay in order to normalize levels of protein loaded onto a gel. Then 2×SDS-PAGE sample buffer was added to each sample, they were boiled for 10 minutes, and loaded onto a denaturing polyacrylamide gel (4-20% gradient), transferred to nitrocellulose membrane, blocked with 1% BSA for 1 hour, and probed with the monoclonal O-GlcNAc antibody, CTD110.6 (Covance), incubated at a 1:5000 dilution in 1% BSA overnight at 4° C., followed by addition of anti-mouse HRP secondary antibody. Pierce SuperSignal West Pico Chemiluminescent substrate was added to perform the western blot.
(In general: A western blot detects proteins with antibodies after separation by electrophoresis.)
As to `O=C(C(NS(=O)(=O)c1ccc2[nH]c(=O)ccc2c1)c1ccccc1)N(Cc1ccco1)Cc1cccs1` (stereo not shown) [Example 3, N-(furan-2-ylmethyl)-2-(2-oxo-1,2-dihydroquinoline-6-sulfonamido)-2-phenyl-N-(thiophen-2-ylmethyl)acetamide], the “Effect on glucosamine-induced cellular-wide O-GlcNAcylation” value is recorded as “reduces glucosamine-induced cellular-wide O-GlcNAcylation changes to normal levels”.

Another test concerns the target T1, sOGT (Homo sapiens (Human), UniProt O15294). The test is described as follows: Fluorescence polarization screen of quinolinesulfonamide library for OGT inhibition (displacement of fluorescein-linked UDP-GlcNAc analog). It is filed as binding. As to conditions: rough Ki values from fluorescence polarization results and Kd of the probe; 1-2 μM sOGT, 50 nM probe. Here is the method:
Compound libraries of the 4 concentrations in duplicated were then transferred to the assay plates using a 100 nL pin array, resulting in a final compound concentration of 25 μg/mL or ˜70 μM at the highest of the four concentrations, assuming an average compound MW of 350. Using a Perkin Elmer Envision® microplate reader, the sample was excited at 480 nm in the vertical plane, and simultaneous emission intensity (535 nm) of the vertical and horizontal polarization planes was measured. The polarization was calculated using the following equation: eq4: mP=1000*(V−G*H)/(V+G*H) where: mP=millipolarization units, V=intensity of vertically polarized emission (RFU), H=intensity of horizontally polarized emission (RFU), and G=gain.
(In general: Fluorescence polarisation rises when a labelled molecule tumbles more slowly, as on binding a larger partner.)
`Cc1cccc(N(C)C(=O)C(NS(=O)(=O)c2ccc3c(c2)CCC(=O)N3)c2ccccc2)c1` (stereo not shown) yielded an inhibitory constant (Ki) of 7.4 µM. With `COc1cccc(N2CCN(C(=O)C(NS(=O)(=O)c3ccc4c(c3)CCC(=O)N4)c3ccccc3)CC2)c1` (stereo not shown), the Ki is 6.3 µM. On the same count and under the same terms, the value for `O=C1CCc2cc(S(=O)(=O)NC(C(=O)NCc3ccc(Cl)cc3)c3ccccc3)ccc2N1` (stereo not shown) was 6.6 µM. The same measure, in the same setting: to `O=C1CCc2cc(S(=O)(=O)NC(C(=O)N3CCC(Cc4ccccc4)CC3)c3ccccc3)ccc2N1` (stereo not shown) belongs 2 µM. The molecule `Cc1cccc(C)c1NC(=O)C(NS(=O)(=O)c1ccc2c(c1)CCC(=O)N2)c1ccccc1` (stereo not shown) returned a Ki of 37 µM. On the same count and under the same terms, the value for `O=C1CCc2cc(S(=O)(=O)NC(C(=O)N3CCN(c4ccccn4)CC3)c3ccccc3)ccc2N1` (stereo not shown) was 4.2 µM; that for `CCc1cccc(C)c1NC(=O)C(NS(=O)(=O)c1ccc2c(c1)CCC(=O)N2)c1ccccc1` (stereo not shown) was 97 µM.

Molecule `O=C1CCc2cc(S(=O)(=O)NC(C(=O)N3CCN(C4CCCCC4)CC3)c3ccccc3)ccc2N1` (stereo not shown) displayed a Ki of 20 µM. Same read-out and setting: to `Cc1ccc(NC(=O)C(NS(=O)(=O)c2ccc3c(c2)CCC(=O)N3)c2ccccc2)c(Br)c1` (stereo not shown) belongs 52 µM. The molecule `O=C1CCc2cc(S(=O)(=O)NC(C(=O)N3CCN(C(=O)c4ccco4)CC3)c3ccccc3)ccc2N1` (stereo not shown) had a Ki of 11 µM. Same read-out and setting: to `Cc1ccc(N2CCN(C(=O)C(NS(=O)(=O)c3ccc4c(c3)CCC(=O)N4)c3ccccc3)CC2C)cc1` (stereo not shown) belongs 3.2 µM; to `CC(c1cccs1)N(Cc1ccco1)C(=O)C(NS(=O)(=O)c1ccc2c(c1)CCC(=O)N2)c1ccccc1` (stereo not shown), 1.6 µM; to `Cc1cc(C)c(NC(=O)C(NS(=O)(=O)c2ccc3c(c2)CCC(=O)N3)c2ccccc2)c(C)c1` (stereo not shown), 5.6 µM.

Molecule `CCN(CC)C(=O)C(NS(=O)(=O)c1ccc2c(c1)CCC(=O)N2)c1ccccc1` (stereo not shown) registered a Ki of 21 µM. Molecule `O=C(O)CC(NS(=O)(=O)c1ccc2c(c1)CCC(=O)N2)c1cccc(Cl)c1` (stereo not shown) returned a Ki of 15 µM.

`CN(Cc1ccco1)C(=O)C(Cc1ccccc1)NS(=O)(=O)c1ccc2c(c1)CCC(=O)N2` (stereo not shown) showed a Ki of 13 µM. Still for that read-out and setting: to `CCOc1ccccc1NS(=O)(=O)c1ccc2[nH]c(=O)ccc2c1` belongs 4.7 µM; to `COc1ccc(NS(=O)(=O)c2ccc3[nH]c(=O)ccc3c2)cc1OC`, 7.2 µM; to `Cc1ccc(N2CCN(C(=O)C(NS(=O)(=O)c3ccc4c(c3)CCC(=O)N4)c3ccccc3)CC2)cc1` (stereo not shown), 9 µM.

On to `CN(CC(=O)Nc1nc2ccc(Cl)cc2s1)S(=O)(=O)c1ccc2[nH]c(=O)ccc2c1`, for which affinity was put at a Ki of 60 µM.

Regarding `O=C1CCc2cc(S(=O)(=O)NC(C(=O)NCc3ccccc3)c3ccccc3)ccc2N1` (stereo not shown), the affinity, expressed as Ki, was 125 µM. On the same count and under the same terms, to `COc1cc2c(cc1OC)C(C)N(S(=O)(=O)c1ccc3[nH]c(=O)ccc3c1)CC2` (stereo not shown) belongs 50 µM; to `O=C1CCc2cc(S(=O)(=O)NC(C(=O)N(Cc3ccco3)Cc3cccs3)c3ccccc3)ccc2N1` (stereo not shown), 4 µM; to `CC(C)N(Cc1ccccc1)C(=O)C(NS(=O)(=O)c1ccc2c(c1)CCC(=O)N2)c1ccccc1` (stereo not shown) [drawing 86], 5.7 µM. The same measure, in the same setting: to `CC(C)N(Cc1ccccc1)C(=O)C(NS(=O)(=O)c1ccc2c(c1)CCC(=O)N2)c1ccccc1` (stereo not shown) [drawing 98] belongs 7 µM; to `O=C(C(NS(=O)(=O)c1ccc2[nH]c(=O)ccc2c1)c1ccccc1)N(Cc1ccco1)Cc1cccs1` (stereo not shown) [drawing 100], 0.4 µM.

The target of another test is T1, sOGT. Description: Secondary assay: transfer of UDP-14C-GlcNAc to casein kinase II derived peptide by sOGT. The format is biochemical. The settings on record: 500 μM peptide, 6.25 μM UDP-14C-GlcNAc, ~20-40 nM sOGT; read-out: IC50 (OGT inhibition).
Protocol: Hits were examined in a secondary assay involving the transfer of UDP-^14C-GlcNAc to a peptide derived from casein kinase II, which contains a known OGT glycosylation site, as described by Hart and co-workers (see manuscript, reference 4). Three lysines and a tyrosine were added to the N-terminus of this peptide substrate ([sequence]) to allow capture on phosphocellulose discs and UV detection, respectively. […] Reactions were spotted on Whatman P81 phosphocellulose discs, washed three times for five minutes in 1% phosphoric acid, and counted by liquid scintillation counting. IC50s curves were determined from the counts of the reactions and IC50s were determined.
On to `O=C(C(NS(=O)(=O)c1ccc2[nH]c(=O)ccc2c1)c1ccccc1)N(Cc1ccco1)Cc1cccs1` (stereo not shown) [Example 3, N-(furan-2-ylmethyl)-2-(2-oxo-1,2-dihydroquinoline-6-sulfonamido)-2-phenyl-N-(thiophen-2-ylmethyl)acetamide], for which the IC50 was 0.39 µM.
